Data as given in patent US20160257697A1, “THIOPHENE-SUBSTITUTED TETRACYCLIC COMPOUNDS AND METHODS OFUSE THEREOF FOR THE TREATMENT OF VIRAL DISEASES” (priority 2013, published 2016).
Where two headings read alike, the source gives them in different places.

Assays:
HCV replicon 2B = assay: microbe, parasite or virus in culture; assay type: cell-based, Hepatitis C virus (HCV); settings: Replicon Assay A
Method: (§1) To measure cell-based anti-HCV activity of compounds of the present invention, two complimentary assays were employed using various replicons. In the first assay (“Replicon Assay A”), replicon cells were seeded at 2000 cells/well in 384-well 384-well flat bottom tissue culture treated clear bottom plate (Corning 3707) in the presence of the test compound. […] The final concentration of DMSO was 0.5%. Fetal bovine serum was 5%, in the assay media. Cells were harvested on day 3 by removing media and washing the cells with a suitable wash buffer. The cells are lysed with the addition of 1× Qiagen lysis buffer (Cat #1062731). The replicon RNA level was measured using real time PCR (TaqMan® EZ RT-PCR, Applied Biosystems 403028) with the following primers and probes: […]
(§2) Cyclophilin RNA was used as endogenous control and was amplified in the same reaction as NS5B (multiplex PCR). The real-time RT-PCR reactions were run on ABI PRISM 7900HT Sequence Detection System using the following program: 50° C. for 2 minutes, 60° C. for 30 minutes, 95° C. for 5 minutes, 40 cycles of 94° C. for 20 sec, 55° C. for 1 minutes.
(§3) The amount of HCV replicon RNA per cell is quantified using a linear regression curve for a known nanogram (ng) amount of HCV replicon total RNA. This is established by plotting the Cycle Threshold values (Ct) from the Neo probe and primer set versus the log (ng) for each HCV replicon total RNA standard. The amount of HCV RNA for each replicon sample is calculated by taking the sample's Ct value, minus the line intercept, divided by the slope of the line. Similarly, the amount of Cyclophilin mRNA per cell is also quantified using a linear regression curve for a known nanogram (ng) amount of HCV replicon total RNA. Again, this is established by plotting the Cycle Threshold values (Ct) from the Cyclophilin probe and primer set versus the log (ng) for each HCV replicon total RNA standard.
(§4) Data for replicons 1A, 1AY93H and 2B were obtained using Replicon Assay A and data for replicons 1AQ30D and 1B were obtained using Replicon Assay B.

HCV replicon 1A = assay: microbe, parasite or virus in culture; assay type: cell-based, Hepatitis C virus (HCV); settings: replicon 1A, Replicon Assay A
Method: as §1, §2, §3, §4

[1] = read-out: 2B IC50, HCV replicon 2B
[2] = Hepatitis C virus, read-out: 2B IC50, HCV replicon 2B

COC(=O)N[C@H](C(=O)N1CCC[C@H]1c1ncc(-c2cc(F)c3c(c2)OC(c2ccc(C4CC4(F)F)s2)n2c-3cc3cc(-c4cnc([C@@H]5CCCN5C(=O)[C@@H](NC(=O)OC)C(C)C)[nH]4)ccc32)[nH]1)C(C)C (single isomer, unassigned) [Compound 117]
IC50 (HCV replicon 2B; read-out: 2B IC50, replicon 2B): 0.028 nM

COC(=O)N[C@H](C(=O)N1CCC[C@H]1c1ncc(-c2cc(F)c3c(c2)OC(c2ccc(C4CC4(F)F)s2)n2c-3cc3cc(-c4cnc([C@@H]5CCCN5C(=O)[C@@H](NC(=O)OC)C(C)C)[nH]4)ccc32)[nH]1)C(C)C (single isomer, unassigned) [Compound 119]
IC50 (HCV replicon 2B; read-out: 2B IC50, replicon 2B): 0.073 nM

CCCc1ccc(C2Oc3cc(-c4cnc([C@@H]5CCCN5C(=O)[C@@H](NC(=O)OC)C(C)C)[nH]4)cc(F)c3-c3cc4cc(-c5cnc([C@@H]6CCCN6C(=O)C(NC(=O)OC)C6CCOC(C)(C)C6)[nH]5)ccc4n32)s1 (single isomer, unassigned) [Compound 566]
IC50 (HCV replicon 2B; [1]): 0.31 nM

COC(=O)NC(C(=O)N1CCC[C@H]1c1ncc(-c2ccc3c(c2)cc2n3C(c3ccc(C4CC4)s3)Oc3cc(-c4cnc([C@@H]5CCCN5C(=O)[C@@H](NC(=O)OC)C(C)C)[nH]4)cc(F)c3-2)[nH]1)C1CCOC2(CC2)C1 (single isomer, unassigned) [Compound 176]
IC50 (HCV replicon 2B; read-out: 2B IC50, replicon 2B): 0.046 nM | IC50 (HCV replicon 1A; Hepatitis C virus): 0.0011 nM

COC(=O)N[C@H](C(=O)N1CCC[C@H]1c1ncc(-c2cc(F)c3c(c2)OC(c2cc4c(s2)C(C)(C)CC4)n2c-3cc3cc(-c4cnc([C@@H]5CCCN5C(=O)[C@@H](NC(=O)OC)C(C)C)[nH]4)ccc32)[nH]1)C(C)C (single isomer, unassigned) [Compound 391]
IC50 (HCV replicon 1A; Hepatitis C virus): 0.0035 nM

[2H]C(C)(C)C(NC(=O)OC)C(=O)N1CCC[C@H]1c1ncc(-c2cc(F)c3c(c2)OC(c2ccc(C4CC4)s2)n2c-3cc3cc(-c4cnc([C@@H]5CCCN5C(=O)[C@@H](NC(=O)OC)C(C)C)[nH]4)ccc32)[nH]1 (single isomer, unassigned) [Compound 30]
IC50 (HCV replicon 2B; read-out: 2B IC50, replicon 2B): 33.3 nM | IC50 (HCV replicon 1A): 0.0513 nM

CCCc1ccc(C2Oc3cc(-c4cnc([C@@H]5CCCN5C(=O)[C@@H](NC(=O)OC)C(C)C)[nH]4)cc(F)c3-c3cc4cc(-c5cnc([C@@H]6C[C@H]7C[C@H]7N6C(=O)[C@@H](NC(=O)OC)C(C)C)[nH]5)ccc4n32)s1 (single isomer, unassigned) [Compound 561]
IC50 (HCV replicon 2B; [1]): 0.23 nM

COC(=O)NC(C(=O)N1CCC[C@H]1c1ncc(-c2ccc3c(c2)cc2n3C(c3ccc(CC(F)(F)F)s3)Oc3cc(-c4cnc([C@@H]5CCCN5C(=O)[C@@H](NC(=O)OC)C(C)C)[nH]4)cc(F)c3-2)[nH]1)C1CCOC(C)(C)C1 (single isomer, unassigned) [Compound 425]
IC50 (HCV replicon 2B; [2]): 0.011 nM

COC(=O)NC(C(=O)N1CCC[C@H]1c1ncc(-c2cc(F)c3c(c2)OC(c2ccc(C4CC4)s2)n2c-3cc3cc(-c4cnc([C@@H]5CCCN5C(=O)C(NC(=O)OC)C5C[C@@H](C)O[C@@H](C)C5)[nH]4)ccc32)[nH]1)C1C[C@@H](C)O[C@@H](C)C1 (single isomer, unassigned) [Compound 302]
IC50 (HCV replicon 1A): > 13 nM

COC(=O)NC(C(=O)N1[C@@H]2C[C@@H]2C[C@H]1c1ncc(-c2ccc3c(c2)cc2n3C(c3cc4ccccc4s3)Oc3cc(-c4cnc([C@@H]5CCCN5C(=O)[C@@H](NC(=O)OC)C(C)C)[nH]4)cc(F)c3-2)[nH]1)C1C[C@@H](C)O[C@@H](C)C1 (single isomer, unassigned) [Compound 646]
IC50 (HCV replicon 2B; [1]): 0.173 nM

COC(=O)NC(C(=O)N1[C@@H]2C[C@@H]2C[C@H]1c1ncc(-c2ccc3c(c2)cc2n3C(c3ccc(C(F)F)s3)Oc3cc(-c4cnc([C@@H]5CCCN5C(=O)[C@@H](NC(=O)OC)C(C)C)[nH]4)cc(F)c3-2)[nH]1)C1C[C@@H](C)O[C@@H](C)C1 (single isomer, unassigned) [Compound 285]
IC50 (HCV replicon 2B; read-out: 2B IC50, replicon 2B): 0.79 nM

COC(=O)NC(C(=O)N1CCC[C@H]1c1ncc(-c2ccc3c(c2)cc2n3C(c3ccc(C4CC4)s3)Oc3cc(-c4cnc([C@@H]5CCCN5C(=O)[C@@H](NC(=O)OC)C(C)C)[nH]4)cc(C)c3-2)[nH]1)C1CCOC(C)(C)C1 (single isomer, unassigned) [Compound 565]
IC50 (HCV replicon 2B; [2]): 0.17 nM

C=C(C)C1Oc2cc(-c3cnc([C@@H]4CCCN4C(=O)[C@@H](N)C(C)C)[nH]3)cc(F)c2-c2cc3cc(-c4cnc([C@@H]5C[C@H]6C[C@H]6N5C(C)=O)[nH]4)ccc3n21 (single isomer, unassigned) [Compound 571]
IC50 (HCV replicon 2B; [1]): 0.087 nM

CCc1ccc(C2Oc3cc(-c4cnc([C@@H]5CCCN5C(=O)C(NC(=O)OC)C5C[C@@H](C)O[C@@H](C)C5)[nH]4)cc(F)c3-c3cc4cc(-c5cnc([C@@H]6CCCN6C(=O)[C@@H](NC(=O)OC)C(C)C)[nH]5)ccc4n32)s1 (single isomer, unassigned) [Compound 155]
IC50 (HCV replicon 1A): 0.167 nM

COC(=O)N[C@H](C(=O)N1CCC[C@H]1c1ncc(-c2cc(F)c3c(c2)OC(c2ccc(C4CC4(F)F)s2)n2c-3cc3cc(-c4cnc([C@@H]5CCCN5C(=O)[C@@H](NC(=O)OC)C(C)C)[nH]4)ccc32)[nH]1)C(C)C (single isomer, unassigned) [Compound 116]
IC50 (HCV replicon 2B; read-out: 2B IC50, replicon 2B): 1.85 nM

COC(=O)NC(C(=O)N1CCC[C@H]1c1ncc(-c2ccc3c(c2)cc2n3C(c3ccc(C4CC4)s3)Oc3cc(-c4cnc([C@@H]5CCCN5C(=O)[C@@H](NC(=O)OC)C(C)C)[nH]4)cc(F)c3-2)[nH]1)C1CN(C(=O)C2CC2)C1 (single isomer, unassigned) [Compound 270]
IC50 (HCV replicon 1A): 0.62 nM

CCc1ccc(C2Oc3cc(-c4cnc([C@@H]5CCCN5C(=O)C(NC(=O)OC)C5CCOC(C)(C)C5)[nH]4)cc(F)c3-c3cc4cc(-c5cnc([C@@H]6CCCN6C(=O)C(NC(=O)OC)C6CCOC(C)(C)C6)[nH]5)ccc4n32)s1 (single isomer, unassigned) [Compound 294]
IC50 (HCV replicon 1A): > 1.67 nM

COC(=O)NC(C(=O)N1CCC[C@H]1c1ncc(-c2ccc3c(c2)cc2n3C(c3ccc(C4CC4)s3)Oc3cc(-c4cnc([C@@H]5CCCN5C(=O)[C@@H](NC(=O)OC)C(C)C)[nH]4)cc(F)c3-2)[nH]1)C1CC2CCC(C1)O2 (single isomer, unassigned) [Compound 180]
IC50 (HCV replicon 1A; Hepatitis C virus): 0.0025 nM

C=C(C)C1Oc2cc(-c3cnc([C@@H]4CCCN4C(=O)[C@@H](N)C(C)C)[nH]3)cc(F)c2-c2cc3cc(-c4cnc([C@@H]5C[C@H]6C[C@H]6N5C(C)=O)[nH]4)ccc3n21 (single isomer, unassigned) [Compound 572]
IC50 (HCV replicon 2B; [1]): 0.031 nM

COC(=O)NC(C(=O)N1CCC[C@H]1c1ncc(-c2ccc3c(c2)cc2n3C(c3ccc(C4CC4)s3)Oc3cc(-c4cnc([C@@H]5CCCN5C(=O)[C@@H](NC(=O)OC)C(C)C)[nH]4)cc(F)c3-2)[nH]1)C1CN(C(=O)C2CC2)C1 (single isomer, unassigned) [Compound 268]
IC50 (HCV replicon 1A): 0.045 nM

COC(=O)NC(C(=O)N1CCC[C@H]1c1ncc(-c2ccc3c(c2)cc2n3C(c3ccc(C(C)C)s3)Oc3cc(-c4cnc([C@@H]5CCCN5C(=O)[C@@H](NC(=O)OC)C(C)C)[nH]4)cc(F)c3-2)[nH]1)C1C[C@@H](C)O[C@@H](C)C1 (single isomer, unassigned) [Compound 233]
IC50 (HCV replicon 1A): 0.066 nM

CCCc1ccc(C2Oc3cc(-c4cnc([C@@H]5CCCN5C(=O)[C@@H](NC(=O)OC)C(C)C)[nH]4)cc(F)c3-c3cc4cc(-c5cnc([C@@H]6CCCN6C(=O)C(NC(=O)OC)C6CCOC(C)(C)C6)[nH]5)ccc4n32)s1 (single isomer, unassigned) [Compound 567]
IC50 (HCV replicon 2B; [1]): 0.011 nM

COC(=O)NC(C(=O)N1CCC[C@H]1c1ncc(-c2ccc3c(c2)cc2n3C(c3cc4c(s3)CCC4)Oc3cc(-c4cnc([C@@H]5CCCN5C(=O)[C@@H](NC(=O)OC)C(C)C)[nH]4)cc(F)c3-2)[nH]1)C1C[C@@H](C)O[C@@H](C)C1 (single isomer, unassigned) [Compound 204]
IC50 (HCV replicon 2B; Hepatitis C virus, read-out: 2B IC50 (nM), replicon 2B): 0.26 nM

CCc1ccc(C2Oc3cc(-c4cnc([C@@H]5CCCN5C(=O)C(NC(=O)OC)C5CCOC(C)(C)C5)[nH]4)cc(F)c3-c3cc4cc(-c5cnc([C@@H]6CCCN6C(=O)[C@@H](NC(=O)OC)C(C)C)[nH]5)ccc4n32)s1 (single isomer, unassigned) [Compound 161]
IC50 (HCV replicon 1A): 0.0586 nM

CCc1ccc(C2Oc3cc(-c4cnc([C@@H]5CCCN5C(=O)C(NC(=O)OC)C5CCOC(C)(C)C5)[nH]4)cc(F)c3-c3cc4cc(-c5cnc([C@@H]6CCCN6C(=O)C(NC(=O)OC)C6CCOC(C)(C)C6)[nH]5)ccc4n32)s1 (single isomer, unassigned) [Compound 293]
IC50 (HCV replicon 1A): > 1.67 nM

CCCc1ccc(C2Oc3cc(-c4cnc([C@@H]5CCCN5C(=O)[C@@H](NC(=O)OC)C(C)C)[nH]4)cc(F)c3-c3cc4cc(-c5cnc([C@@H]6C[C@H]7C[C@H]7N6C(=O)[C@@H](NC(=O)OC)C(C)C)[nH]5)ccc4n32)s1 (single isomer, unassigned) [Compound 562]
IC50 (HCV replicon 2B; [1]): 0.754 nM
